Tests used:
Mushroom tyrosinase [1] = biological target: T1, Mushroom tyrosinase (Agaricus bisporus, UniProt O42713+Q00024+C7FF04+C7FF05); experiment: Inhibition of mushroom tyrosinase using L-DOPA as substrate preincubated for 10 mins followed by substrate addition by absorbance based analysis
Mushroom tyrosinase [2] = biological target: T1, Mushroom tyrosinase; experiment: Inhibition of mushroom tyrosinase incubated for 10 mins by spectrophotometric analysis
Mushroom tyrosinase [3] = biological target: T1, Mushroom tyrosinase; experiment: Inhibition of mushroom tyrosinase using L-DOPA as substrate preincubated for 10 mins followed by substrate addition and measured after 20 mins by absorbance based analysis

IC50 (Mushroom tyrosinase [1]) [nM]	IC50 (Mushroom tyrosinase [3]) [nM]	SMILES	also measured
730	–	COc1ccccc1/C=N/c1nnc(S)s1	–
460	–	O=c1oc2ccccc2cc1C1=NN(c2nc(-c3ccc(Br)cc3)cs2)C(c2ccc(Cl)cc2)C1 (stereo unspecified)	–
670	–	O=[N+]([O-])c1ccccc1/C=N/c1nnc(S)s1	–
–	60	O=C1OC(c2cccc([N+](=O)[O-])c2)=NC(=S)C1C1N=NN=N1 (stereo unspecified)	–
3620	–	Sc1nnc(/N=C/c2ccc(Cl)c(Cl)c2)s1	–
–	990	O=C1C=C(Cn2cc(COc3cccc(Cl)c3)nn2)C(=O)C=C1O	–
–	81	O=C1OC(c2ccc([N+](=O)[O-])cc2)=NC(=S)C1c1nn[nH]n1 (stereo unspecified)	–
1710	–	Oc1ccc(Cl)cc1/C=N/c1nnc(S)s1	–
–	47	O=C1OC(c2ccc(Cl)cc2Cl)=NC(=S)C1c1nn[nH]n1 (stereo unspecified)	–
2460	–	S=c1[nH]nc(/N=C/c2ccc(Cl)cc2)s1	–
–	1330	O=C1C=C(Cn2cc(COc3ccccc3)nn2)C(=O)C=C1O	–
–	690	O=C1C=C(Cn2cc(COc3ccc(Cl)cc3)nn2)C(=O)C=C1O	–
–	200	COc1cccc(OC)c1C1=NC(=S)C(c2nn[nH]n2)C(=O)O1 (stereo unspecified)	–
–	75	O=C1OC(c2cc([N+](=O)[O-])cc([N+](=O)[O-])c2)=NC(=S)C1c1nn[nH]n1 (stereo unspecified)	–
760	–	Fc1ccccc1/C=N/c1nnc(S)s1	–
–	1120	O=C1C=C(Cn2cc(COc3ccc(Cl)cc3Cl)nn2)C(=O)C=C1O	–
780	–	Oc1ccccc1/C=N/c1nnc(S)s1	–
–	71	O=C1OC(c2cccc(Cl)c2)=NC(=S)C1C1N=NN=N1 (stereo unspecified)	–
–	310	Cc1ccc(C2=NC(=S)C(c3nn[nH]n3)C(=O)O2)cc1 (stereo unspecified)	–
–	73	COc1ccc(C2=NC(=S)C(C3N=NN=N3)C(=O)O2)cc1 (stereo unspecified)	–
> 20000	–	Sc1nnc(/N=C/c2ccccc2)s1	–
–	290	O=C1OC(c2ccc(Cl)cc2)=NC(=S)C1c1nn[nH]n1 (stereo unspecified)	–
4750	–	Sc1nnc(/N=C/c2cccc(Cl)c2)s1	–
–	1070	O=C1C=C(Cn2cc(COc3cccc(F)c3)nn2)C(=O)C=C1O	–
–	88	O=C1OC(c2ccccc2Cl)=NC(=S)C1c1nn[nH]n1 (stereo unspecified)	–

The next lines start with the compound.

SMILES	IC50 (Mushroom tyrosinase [1]) [nM]	IC50 (Mushroom tyrosinase [3]) [nM]	also measured
CCCCCn1nc(-c2ccccc2)n(CC(=O)NNC(=S)Nc2ccc(Br)cc2)c1=O	–	–	IC50 (Mushroom tyrosinase [2]): 19 nM
COc1ccc(C2CC(c3cc4ccccc4oc3=O)=NN2c2nc(-c3ccc(Br)cc3)cs2)cc1O (stereo unspecified)	83	–	–
COc1ccc(C2CC(c3cc4ccccc4oc3=O)=NN2c2nc(-c3ccc(Br)cc3)cs2)cc1[N+](=O)[O-] (stereo unspecified)	870	–	–
CCCCCn1nc(-c2ccccc2)n(CC(=O)NNC(=O)Nc2ccc(F)cc2F)c1=O	–	–	IC50 (Mushroom tyrosinase [2]): > 20000 nM
O=C1C=C(Cn2cc(COc3ccc(CO)cc3)nn2)C(=O)C=C1O	–	1320	–
Cc1ccc(NC(=O)CSc2nnc(Cc3csc(N)n3)n2-c2ccccc2)c(C)c1	–	54	–
CCCCCn1nc(-c2ccccc2)n(CC(=O)NNC(=O)Nc2ccc(F)cc2)c1=O	–	–	IC50 (Mushroom tyrosinase [2]): > 20000 nM
COc1cc(OCc2cn(CC3=CC(=O)C(O)=CC3=O)nn2)cc(OC)c1OC	–	870	–
CCCCCn1nc(-c2ccccc2)n(CC(=O)NNC(=O)Nc2cccc(C(F)(F)F)c2)c1=O	–	–	IC50 (Mushroom tyrosinase [2]): 1.65 nM
CCCCCn1nc(-c2ccccc2)n(CC(=O)NNC(=O)Nc2ccccc2Cl)c1=O	–	–	IC50 (Mushroom tyrosinase [2]): > 20000 nM
CCCCCn1nc(-c2ccccc2)n(CC(=O)NNC(=S)Nc2cc(Cl)cc(Cl)c2)c1=O	–	–	IC50 (Mushroom tyrosinase [2]): 170 nM
CCCCCn1nc(-c2ccccc2)n(CC(=O)NNC(=S)Nc2cccc(Cl)c2)c1=O	–	–	IC50 (Mushroom tyrosinase [2]): 5400 nM
CCc1cccc(C)c1NC(=O)CSc1nnc(Cc2csc(N)n2)n1-c1ccccc1	–	190	–
Cc1cc(C)cc(NC(=O)CSc2nnc(Cc3csc(N)n3)n2-c2ccccc2)c1	–	240	–
CCCCCn1nc(-c2ccccc2)n(CC(=O)NNC(=O)Nc2ccc(Cl)cc2)c1=O	–	–	IC50 (Mushroom tyrosinase [2]): > 20000 nM
Cc1ccccc1NC(=O)CSc1nnc(Cc2csc(N)n2)n1-c1ccccc1	–	15	–
O=c1oc2ccccc2cc1C1=NN(c2nc(-c3ccc(Br)cc3)cs2)C(C2=CC3C=CC=CC3N2)C1 (stereo unspecified)	17	–	–
CCCCCn1nc(-c2ccccc2)n(CC(=O)NNC(=O)Nc2ccccc2Br)c1=O	–	–	IC50 (Mushroom tyrosinase [2]): > 20000 nM
Cc1cccc(NC(=O)CSc2nnc(Cc3csc(N)n3)n2-c2ccccc2)c1C	–	2010	–
CCCCCn1nc(-c2ccccc2)n(CC(=O)NNC(=S)Nc2ccc(Cl)cc2Cl)c1=O	–	–	IC50 (Mushroom tyrosinase [2]): > 20000 nM
CCCCCn1nc(-c2ccccc2)n(CC(=O)NNC(=O)Nc2ccccc2F)c1=O	–	–	IC50 (Mushroom tyrosinase [2]): > 20000 nM
CCCCCn1nc(-c2ccccc2)n(CC(=O)NNC(=S)Nc2ccc(Cl)cc2)c1=O	–	–	IC50 (Mushroom tyrosinase [2]): 190 nM
O=c1oc2ccccc2cc1C1=NN(c2nc(-c3ccc(Br)cc3)cs2)C(c2ccc(O)cc2)C1 (stereo unspecified)	230	–	–
CCn1c2ccccc2c2cc(C3CC(c4cc5ccccc5oc4=O)=NN3c3nc(-c4ccc(Br)cc4)cs3)ccc21 (stereo unspecified)	100	–	–

SMILES	IC50 (Mushroom tyrosinase [1]) [nM]	IC50 (Mushroom tyrosinase [3]) [nM]	also measured
O=c1oc2ccccc2cc1C1=NN(c2nc(-c3ccc(Br)cc3)cs2)C(c2ccccc2)C1 (stereo unspecified)	260	–	–
CC(=O)Nc1ccc(OCc2cn(CC3=CC(=O)C(O)=CC3=O)nn2)cc1	–	2640	–
O=C1C=C(Cn2cc(COc3ccc([N+](=O)[O-])cc3)nn2)C(=O)C=C1O	–	520	–
O=c1oc2ccccc2cc1C1=NN(c2nc(-c3ccc(Br)cc3)cs2)C(c2cc([N+](=O)[O-])ccc2O)C1 (stereo unspecified)	910	–	–
Cc1cccc(C)c1NC(=O)CSc1nnc(Cc2csc(N)n2)n1-c1ccccc1	–	51	–
CCCCCn1nc(-c2ccccc2)n(CC(=O)NNC(=S)Nc2ccccc2Br)c1=O	–	–	IC50 (Mushroom tyrosinase [2]): > 20000 nM
Cc1ccc(NC(=O)CSc2nnc(Cc3csc(N)n3)n2-c2ccccc2)cc1C	–	110	–
CCCCCn1nc(-c2ccccc2)n(CC(=O)NNC(=S)Nc2cc(C(F)(F)F)cc(C(F)(F)F)c2)c1=O	–	–	IC50 (Mushroom tyrosinase [2]): > 20000 nM
O=c1oc2ccccc2cc1C1=NN(c2nc(-c3ccc(Br)cc3)cs2)C(c2cc([N+](=O)[O-])ccc2Cl)C1 (stereo unspecified)	28	–	–
CCCCCn1nc(-c2ccccc2)n(CC(=O)NNC(=O)Nc2ccc(Br)cc2)c1=O	–	–	IC50 (Mushroom tyrosinase [2]): > 20000 nM
CCCCCn1nc(-c2ccccc2)n(CC(=O)NNC(=S)Nc2ccc(F)cc2F)c1=O	–	–	IC50 (Mushroom tyrosinase [2]): 19 nM
CCCCCn1nc(-c2ccccc2)n(CC(=O)NNC(=O)Nc2cccc(Br)c2)c1=O	–	–	IC50 (Mushroom tyrosinase [2]): > 20000 nM
O=c1oc2ccccc2cc1C1=NN(c2nc(-c3ccc(Br)cc3)cs2)C(c2ccc(OCc3ccccc3)cc2)C1 (stereo unspecified)	970	–	–
O=c1oc2ccccc2cc1C1=NN(c2nc(-c3ccc(Br)cc3)cs2)C(c2ccc([N+](=O)[O-])cc2)C1 (stereo unspecified)	130	–	–
CCCCCn1nc(-c2ccccc2)n(CC(=O)NNC(=S)Nc2cccc(C(F)(F)F)c2)c1=O	–	–	IC50 (Mushroom tyrosinase [2]): > 20000 nM
O=c1oc2ccccc2cc1C1=NN(c2nc(-c3ccc(Br)cc3)cs2)C(c2ccc(Br)cc2)C1 (stereo unspecified)	52	–	–
Oc1ccc(Br)cc1/C=N/c1nnc(S)s1	1970	–	–
COc1cc(/C=N/c2nnc(S)s2)cc(OC)c1	5350	–	–
COc1ccc(OCc2cn(CC3=CC(=O)C(O)=CC3=O)nn2)cc1	–	1240	–
Nc1nc(Cc2nnc(SCC(=O)NCc3ccccc3)n2-c2ccccc2)cs1	–	1010	–
CCCCCn1nc(-c2ccccc2)n(CC(=O)NNC(=S)Nc2ccccc2F)c1=O	–	–	IC50 (Mushroom tyrosinase [2]): > 20000 nM
O=c1oc2ccccc2cc1C1=NN(c2nc(-c3ccc(Br)cc3)cs2)C(c2ccco2)C1 (stereo unspecified)	380	–	–
CCCCCn1nc(-c2ccccc2)n(CC(=O)NNC(=S)Nc2ccccc2Cl)c1=O	–	–	IC50 (Mushroom tyrosinase [2]): 4680 nM
Cc1ccc(C)c(NC(=O)CSc2nnc(Cc3csc(N)n3)n2-c2ccccc2)c1	–	58	–

SMILES	IC50 (Mushroom tyrosinase [1]) [nM]	IC50 (Mushroom tyrosinase [3]) [nM]	also measured
COc1cc(OC)cc(OCc2cn(CC3=CC(=O)C(O)=CC3=O)nn2)c1	–	740	–
N#Cc1ccc(OCc2cn(CC3=CC(=O)C(O)=CC3=O)nn2)cc1	–	6290	–
CCCCCn1nc(-c2ccccc2)n(CC(=O)NNC(=S)Nc2ccc(C(F)(F)F)cc2)c1=O	–	–	IC50 (Mushroom tyrosinase [2]): 1490 nM
CN(C)c1ccc(C2CC(c3cc4ccccc4oc3=O)=NN2c2nc(-c3ccc(Br)cc3)cs2)cc1 (stereo unspecified)	220	–	–
CCc1ccccc1NC(=O)CSc1nnc(Cc2csc(N)n2)n1-c1ccccc1	–	65	–
Nc1nc(Cc2nnc(SCC(=O)Nc3ccccc3)n2-c2ccccc2)cs1	–	130	–
CCc1ccc(NC(=O)CSc2nnc(Cc3csc(N)n3)n2-c2ccccc2)cc1	–	120	–
Nc1nc(Cc2nnc(SCC(=O)NCCc3ccccc3)n2-c2ccccc2)cs1	–	16	–
CCCCCn1nc(-c2ccccc2)n(CC(=O)NNC(=O)Nc2ccc(Cl)cc2Cl)c1=O	–	–	IC50 (Mushroom tyrosinase [2]): 1.62 nM
CCCCCn1nc(-c2ccccc2)n(CC(=O)NNC(=S)Nc2ccc(F)cc2)c1=O	–	–	IC50 (Mushroom tyrosinase [2]): 14 nM
CC(C)(C)c1ccc(/C=N/c2nnc(S)s2)cc1	1400	–	–
CCOc1ccc(NC(=O)CSc2nnc(Cc3csc(N)n3)n2-c2ccccc2)cc1	–	170	–
O=c1oc2ccccc2cc1C1=NN(c2nc(-c3ccc(Br)cc3)cs2)C(c2ccccc2O)C1 (stereo unspecified)	96	–	–
CCCCCn1nc(-c2ccccc2)n(CC(=O)NNC(=O)Nc2ccc(C(F)(F)F)cc2)c1=O	–	–	IC50 (Mushroom tyrosinase [2]): > 20000 nM
CCCCCn1nc(-c2ccccc2)n(CC(=O)NNC(=O)Nc2cccc(F)c2)c1=O	–	–	IC50 (Mushroom tyrosinase [2]): > 20000 nM
CCCCCn1nc(-c2ccccc2)n(CC(=O)NNC(=S)Nc2cccc(F)c2)c1=O	–	–	IC50 (Mushroom tyrosinase [2]): 15200 nM
COc1cc(/C=N/c2nnc(S)s2)cc(OC)c1O	473	–	–
CCCCCn1nc(-c2ccccc2)n(CC(=O)NNC(=O)Nc2cc(C(F)(F)F)cc(C(F)(F)F)c2)c1=O	–	–	IC50 (Mushroom tyrosinase [2]): 1.97 nM
COc1cc(OC)c(/C=N/c2nnc(S)s2)c(OC)c1	900	–	–
O=C1C=C(Cn2cc(COc3ccc(Br)cc3)nn2)C(=O)C=C1O	–	6800	–
COc1cccc(C2CC(c3cc4ccccc4oc3=O)=NN2c2nc(-c3ccc(Br)cc3)cs2)c1O (stereo unspecified)	37	–	–
O=C1C=C(Cn2cc(COc3ccc(F)cc3)nn2)C(=O)C=C1O	–	880	–
CCCCCn1nc(-c2ccccc2)n(CC(=O)NNC(=O)Nc2cc(Cl)cc(Cl)c2)c1=O	–	–	IC50 (Mushroom tyrosinase [2]): > 20000 nM
